Source: US20260060960A1, “GAMMA-SECRETASE INHIBITORS FOR USE IN THE TREATMENT OF INHERITED EPIDERMOLYSIS BULLOSA” (OSPEDALE PEDIATRICO BAMBINO GESU', priority 2022, published 2026)
“Also recorded” adds a separate entry of the source.

How the values were obtained:
Format in all cases: cell-based, human
[1] = system: NOTCH1 intracellular domain (N1-ICD); assay: Immunoblotting of cleaved NOTCH1 (N1-ICD) in nuclear extracts of RDEB fibroblasts; details: 24 h; for intranuclear levels of N1-ICD: RDEB-FBs, 5, 10 and 20 μM
From the text: 3-(4,5-dimethyl-2-thiazolyl)-2,5-diphenyl-2H-tetrazolium bromide (MTT) assay showing the impact of DAPT and PF-03084014 treatment on viability and proliferation rate of three primary fibroblast strains from healthy controls (NH-FBs). Absorbance values (Abs) were converted in percentage by using the following formula: AbsDAPT or PF-03084014×100/AbsREFERENCE WELLS. Data are presented as mean±standard deviation (SD) of at least eight technical replicates per condition. Cells treated with the vehicle DMSO (Panel A), and cells analyzed 24 h after seeding (T0) (Panel B) were considered as reference wells. NH-FBs were growth in DMEM medium containing 10% fetal bovine serum (FBS). […] Based on the results, it was chosen to use GSIs at 20 μM (black arrows) as it was the minimal drug concentration inducing a reduction of cell proliferation after 24 h of treatment. (Panel C) Immunoblotting analysis showing the protein levels of the cleaved and biologically active form of NOTCH1 receptor (N1-ICD, NOTCH1 intracellular domain) in nuclear extracts of primary fibroblasts from RDEB patients (RDEB-FBs, n=2) treated for 24 h with DAPT and PF-03084014 at different doses, ranging from 0.1 to 20 μM. Cells treated with the vehicle dimethyl sulfoxide (DMSO) were used as control. The reduced nuclear localization of N1-ICD indicates Notch pathway inhibition. […] Lamin B1 (LMNB1) and glyceraldehyde-3-phosphate dehydrogenase (GAPDH) served as loading controls for the nuclear and cytoplasmic protein fractions, respectively. **P-value <0.01, ***P<0.001.
RDEB-FBs were seeded on 100 mm cell culture dishes (8×10^5 cells/dish). Subconfluent cells were treated with different concentrations of PF-03084014 or DAPT for 24 h (FIG. 1—Panel C) or with 2 ng/mL of TGF-β1 for 6 h (FIG. 3D). DMSO-treated cells were used as controls. After cell harvesting with trypsin-EDTA, cytoplasmic and nuclear lysates were obtained using NE-PER™ Nuclear and Cytoplasmic Extraction Reagents kit (Thermo Fisher Scientific), following the manufacturer's instructions with slight modifications. […]

[2] = system: primary fibroblasts from RDEB patients (RDEB-FBs); assay: Oris cell migration assay; details: 24 h, vs non-treated cells
Experimental: Migration rate was evaluated using an Oris™ Cell Migration Assay Kit (Platypus Technologies, Madison, WI, USA) following the manufacturer's instructions. Briefly, cells were seeded at high density (5×10^4 per well) onto 96-well plates containing medical-grade silicon stoppers that restrict cell seeding to an outer annular region of the well, and serum starved overnight. The day after, silicon stoppers were removed and cells were transfected. Analysis of cell migration into the detection zone was performed after Giemsa stain (Sigma-Aldrich). The detection zone was photographed with a Leica DMi8 microscope (Leica Microsystems, Wetzlar, Germany) at 0 h (premigration controls) and 24 h after stopper removal. ImageJ was used to calculate the percentage of cell-free area. The cell migration assay of RDEB-FBs and NH-FBs grown under basal conditions was performed following the same protocol.

[3] = system: primary fibroblasts from RDEB patients (RDEB-FBs); assay: Collagen deposition analysis (Sircol assay); details: 96 h
Experimental: The amount of collagens deposited into the extracellular matrix (ECM) was measured by using the Sirius red staining-based Sircol assay (Biocolor, Carrickfergus, Northern Ireland-UK). Briefly, two RDEB-FB strains were seeded into 12-well plates (55.000 cells/well), and growth for two days until they reached about 80-90% confluence. Then, cells were treated for 96 h with PF-03084014 (5 μM), DAPT (20 μM) or the corresponding amount of vehicle DMSO in serum-free media. GSI stimulation was performed in the presence or in the absence of TGF-β1 (2 ng/mL) as inducer of collagen synthesis. In order to further improve collagen deposition, RDEB-FB cultures were daily supplemented with 50 μg/mL of L-ascorbic acid (Merck) and 100 μg/mL of dextran sulfate 500 kDa (Merck). ECM collagens were solubilized by scraping culture wells with a solution of 0.5 M acid acetic containing pepsin at 0.1 mg/mL (Pepsin […].4.23.1, product code: […], Merck) and incubated overnight at 4° C. in agitation. The day after, ECM lysates were neutralized with 100 μL of Acid Neutralizing Reagent (Biocolor), and concentrated by overnight incubation in ice-water mix, in the presence of 200 μL of Isolation & Concentration Reagent (Biocolor). Sample absorbance values were measured by BioTek Synergy H1 microplate reader (Agilent, Santa Clara, CA, USA) at 560 nm and analyzed through the GEN5TM software v. 3.04 (Agilent).

[4] = system: primary fibroblasts from RDEB patients (RDEB-FBs); assay: Type I collagen degradation assay; details: presence of TGF-β1, PF-03084014 5 μM, DAPT 20 μM
Experimental: The ability of RDEB-FBs to degrade a thin film of type I collagen (COL1) was assessed as previously described. Briefly, COL1 from calf hides (Symatese, Chaponost, France), was diluted at a concentration of 375 μg/ml in 13 mM hydrochloric acid. Diluted COL1 solution was rapidly mixed on ice with one quarter-volume of a neutralizing phosphate buffer (20 ml of 0.2 M NaH2PO4 pH 7.5, 20 ml 0.1 M NaOH, 4.15 ml 5 M NaCl) and gently dispensed into 24-well plates. COL1 gelation was obtained maintaining COL1-coated plates at 37° C. for 2 h. COL1 gels were dehydrated overnight in a laminar flow hood, washed with sterile water and PBS containing Penicillin/Streptomycin. Then, a droplet of complete medium containing 12.500 RDEB-FBs was gently poured in the center of the well, and cells were allowed to adhere in a humidified chamber for 3 h. […] At the end of the incubation period, RDEB-FBs were detached by trypsin/EDTA and counted to be sure to evaluate collagenolytic activity of the same number of cells per condition. The residual COL1 film was stained for 15 min with a solution of Coomassie Brilliant Blue R-250 Dye (Thermo Fisher Scientific), the excess of stain was removed with a destain solution (30% ethanol, 7.5% CH3COOH). Images were acquired with a 10× objective.

Structure (SMILES)	intranuclear levels of N1-ICD [1]	ability to migrate into the cell-free area [2]	collagen deposition into the ECM ([3]; 20 μM, with or without TGF-β1)	nuclear N1-ICD protein levels (NOTCH1 cleavage and nuclear translocation) ([1]; RDEB-FBs, 0.1, 0.5, 1 μM, compared with DAPT)	reduction of pepsin-soluble collagens deposited into the ECM ([3]; 5 μM, absence or presence of TGF-β1, vs untreated)	type I collagen degradation areas [4]
C[C@H](NC(=O)Cc1cc(F)cc(F)c1)C(=O)N[C@H](C(=O)OC(C)(C)C)c1ccccc1 [DAPT, N—[N-(3,5-difluorophenacetyl)-L-alanyl]-S-phenylglycine t-butyl ester]	comparable impact on the intranuclear levels of N1-ICD	significant decrease of RDEB-FB ability to migrate	DAPT-mediated reduction of collagen deposition in each experimental condition, though the difference was moderate	–	–	–
CCC[C@H](N[C@H]1CCc2cc(F)cc(F)c2C1)C(=O)Nc1cn(C(C)(C)CNCC(C)(C)C)cn1 [PF-03084014, (S)-2-((S)-5,7-difluoro-1,2,3,4-tetrahydronaphthalen-3-ylamino)-N-(1-(2-methyl-1-(neopentylamino)propan-2-yl)-1H-imidazol-4-yl)pentanamide]	comparable impact on the intranuclear levels of N1-ICD	significant decrease of RDEB-FB ability to migrate	–	huge reduction; also recorded: greater ability of PF-03084014 in inhibiting NOTCH1 cleavage and its nuclear translocation	50%	increased number and size of collagen degradation areas
